Measured values published in publication PMC8177795 (Cancer Science, 2021).

Tests used:
Safety and tolerability = assay type: in vivo, Japanese patients
[1] = system: relapsed/refractory (r/r) B‐cell malignancies; assay: Antitumor activity; assay type: in vivo, Japanese patients
[2] = Plasma pharmacokinetics of acalabrutinib and ACP‐5862; assay type: in vivo, Japanese patients
[3] = r/r CLL; cited from earlier work
r/r MCL = conditions: cited from earlier work
[4] = CLL/SLL cohort (n = 9), Part 1 + Part 2
[5] = MCL cohort (n = 13), Part 1 + Part 2
[6] = multiple dose 100 mg BID, day 8, part 1
[7] = multiple dose 100 mg BID, day 8, part 1, fasting

CC#CC(=O)N1CCC[C@H]1c1nc(-c2ccc(C(=O)Nc3ccccn3)cc2)c2c(N)nccn12 [acalabrutinib]
AE of clinical interest: Other leukopenia (Safety and tolerability; r/r CLL/SLL cohort (N = 9)): 0 n (%) | AE of clinical interest: Second primary malignancies (excl. nonmelanoma skin cancer) (Safety and tolerability; r/r CLL/SLL cohort (N = 9)): 1 (11.1) n (%) | AE of clinical interest: Second primary malignancy (Safety and tolerability; r/r CLL/SLL cohort (N = 9)): 1 (11.1) n (%) | AE of clinical interest: Thrombocytopenia (Safety and tolerability; r/r CLL/SLL cohort (N = 9)): 1 (11.1) n (%) | AE of clinical interest: Tumor lysis syndrome (Safety and tolerability; r/r CLL/SLL cohort (N = 9)): 0 n (%) | Patients with any AE of clinical interest (Safety and tolerability; r/r CLL/SLL cohort (N = 9)): 8 (88.9) n (%) | Patients with any SAE (Safety and tolerability; r/r CLL/SLL cohort (N = 9)): 2 (22.2) n (%) | SAE: Abdominal pain upper (Safety and tolerability; r/r CLL/SLL cohort (N = 9)): 0 n (%) | SAE: Anemia (Safety and tolerability; r/r CLL/SLL cohort (N = 9)): 0 n (%) | SAE: Blood and lymphatic system disorders (Safety and tolerability; r/r CLL/SLL cohort (N = 9)): 0 n (%) | SAE: Colon cancer (Safety and tolerability; r/r CLL/SLL cohort (N = 9)): 1 (11.1) n (%) | SAE: Gastrointestinal disorders (Safety and tolerability; r/r CLL/SLL cohort (N = 9)): 0 n (%) | SAE: Infections and infestations (Safety and tolerability; r/r CLL/SLL cohort (N = 9)): 1 (11.1) n (%) | SAE: Neoplasms benign, malignant, and unspecified (incl. cysts and polyps) (Safety and tolerability; r/r CLL/SLL cohort (N = 9)): 1 (11.1) n (%) | SAE: Pneumonia (Safety and tolerability; r/r CLL/SLL cohort (N = 9)): 1 (11.1) n (%) | AE of clinical interest: Anemia (Safety and tolerability; r/r MCL cohort (N = 13)): 3 (23.1) n (%) | AE of clinical interest: Atrial fibrillation (Safety and tolerability; r/r MCL cohort (N = 13)): 1 (7.7) n (%) | AE of clinical interest: Cardiac events (Safety and tolerability; r/r MCL cohort (N = 13)): 1 (7.7) n (%) | AE of clinical interest: Hemorrhage (Safety and tolerability; r/r MCL cohort (N = 13)): 4 (30.8) n (%) | AE of clinical interest: Hepatotoxicity (Safety and tolerability; r/r MCL cohort (N = 13)): 2 (15.4) n (%) | AE of clinical interest: Infections (Safety and tolerability; r/r MCL cohort (N = 13)): 7 (53.8) n (%) | AE of clinical interest: Interstitial lung disease/pneumonitis (Safety and tolerability; r/r MCL cohort (N = 13)): 1 (7.7) n (%) | AE of clinical interest: Leukopenia (Safety and tolerability; r/r MCL cohort (N = 13)): 4 (30.8) n (%) | AE of clinical interest: Neutropenia (Safety and tolerability; r/r MCL cohort (N = 13)): 3 (23.1) n (%) | AE of clinical interest: Other hemorrhage (Safety and tolerability; r/r MCL cohort (N = 13)): 4 (30.8) n (%) | AE of clinical interest: Other leukopenia (Safety and tolerability; r/r MCL cohort (N = 13)): 3 (23.1) n (%) | AE of clinical interest: Second primary malignancies (excl. nonmelanoma skin cancer) (Safety and tolerability; r/r MCL cohort (N = 13)): 0 n (%) | AE of clinical interest: Second primary malignancy (Safety and tolerability; r/r MCL cohort (N = 13)): 0 n (%) | AE of clinical interest: Thrombocytopenia (Safety and tolerability; r/r MCL cohort (N = 13)): 3 (23.1) n (%) | AE of clinical interest: Tumor lysis syndrome (Safety and tolerability; r/r MCL cohort (N = 13)): 1 (7.7) n (%) | Patients with any AE of clinical interest (Safety and tolerability; r/r MCL cohort (N = 13)): 11 (84.6) n (%) | Patients with any SAE (Safety and tolerability; r/r MCL cohort (N = 13)): 3 (23.1) n (%) | SAE: Abdominal pain upper (Safety and tolerability; r/r MCL cohort (N = 13)): 1 (7.7) n (%) | SAE: Anemia (Safety and tolerability; r/r MCL cohort (N = 13)): 0 n (%) | SAE: Blood and lymphatic system disorders (Safety and tolerability; r/r MCL cohort (N = 13)): 0 n (%) | SAE: Colon cancer (Safety and tolerability; r/r MCL cohort (N = 13)): 0 n (%) | SAE: Gastrointestinal disorders (Safety and tolerability; r/r MCL cohort (N = 13)): 1 (7.7) n (%) | SAE: Infections and infestations (Safety and tolerability; r/r MCL cohort (N = 13)): 2 (15.4) n (%) | SAE: Neoplasms benign, malignant, and unspecified (incl. cysts and polyps) (Safety and tolerability; r/r MCL cohort (N = 13)): 0 n (%) | SAE: Pneumonia (Safety and tolerability; r/r MCL cohort (N = 13)): 2 (15.4) n (%) | CR [1, 4]: 0 Number (%) of patients with a response | CRi [1, 4]: 2 (22) Number (%) of patients with a response | Clinical PD [1, 4]: 0 Number (%) of patients with a response | Nonresponse (total) [1, 4]: 1 (11) Number (%) of patients with a response | Not evaluable [1, 4]: 0 Number (%) of patients with a response | ORR [1, 4]: 8 (89) Number (%) of patients with a response | PD [1, 4]: 0 Number (%) of patients with a response | PR [1, 4]: 6 (67) Number (%) of patients with a response | PRL [1, 4]: 1 (11) Number (%) of patients with a response | Stable disease [1, 4]: 0 Number (%) of patients with a response | ORR ([1]; CLL/SLL cohort including PRL (n = 9), Part 1 + Part 2): 9 (100) Number (%) of patients with a response | CR [1, 5]: 5 (38) Number (%) of patients with a response | Nonresponse (total) [1, 5]: 5 (38) Number (%) of patients with a response | Not evaluable [1, 5]: 0 Number (%) of patients with a response | ORR [1, 5]: 8 (62) Number (%) of patients with a response | PD [1, 5]: 2 (15) Number (%) of patients with a response | PR [1, 5]: 3 (23) Number (%) of patients with a response | Stable disease [1, 5]: 3 (23) Number (%) of patients with a response | Overall response rate (ORR) ([1]; r/r CLL/SLL cohort (8/9 patients)): 89% | Median progression‐free survival (PFS) ([1]; r/r CLL/SLL cohort (n = 9)): not reached | Overall response rate (ORR) ([1]; r/r CLL/SLL cohort including PRL (9/9 patients)): 100% | Overall response rate (ORR) ([1]; r/r MCL cohort (8/13 patients)): 62% | Median progression‐free survival (PFS) ([1]; r/r MCL cohort (n = 13)): 7 months | Coefficient of variation (CV) of Cmax ([2]; after a single dose): 174% | Interpatient variability (CVs) ([2]; after multiple dosing): < 30% | RAC (extent of accumulation on multiple dosing), Amean ± SD [2, 6]: 1.69 | TC (time dependency of pharmacokinetics), Amean ± SD [2, 6]: 1.163 ± 0.4770 | CL/F (oral clearance), Amean ± SD [2, 7]: 84.89 ± 19.84 L/h | t1/2, Amean ± SD [2, 7]: 1.795 ± 0.7404 h | RAC (extent of accumulation on multiple dosing), Amean ± SD ([2]; multiple dose 100 mg BID, day 8, part 1, listed as Acalabrutinib): 1.694 ± 1.275 | CL/F (oral clearance), Amean ± SD ([2]; single dose 100 mg acalabrutinib, part 1, fasting): 99.54 ± 44.33 L/h | Absorption ([2]; single‐ and multiple‐dose periods): rapidly absorbed | Headache, patients [3]: 43% | Headache, patients (r/r MCL): 38%
